Source: patent publication US10501817B2, “Process for the manufacture of co-crystallized sucrose natural sweeteners and the products thereof” (IMPERIAL SUGAR COMPANY, priority 2010, dated 2019)

Legend:
[1] = Taste testing of sweetener compositions in water by trained descriptive panel; assay type: in vivo, human; conditions: in water at room temperature; 12-point scale; aftertaste at 30 seconds
Text: A panel of trained and experienced descriptive panelists (Food Marketing Support Services, Inc.) tasted, described and documented sensory behavior of selected sweetener compositions in water at ambient (room) temperature. The sweetener samples tested were: sugar (100%; Imperial Sugar); Truvia (100%), a consumer brand Stevia sweetener containing a mixture erythritol and Rebiana; Reb-A 97 (100%; Pure Circle), a sugar (75% reduction)—rebaudioside A blended or granulized mixture; a sugar (50% reduction)—rebaudioside A blended or granulized mixture; a sugar/rebaudioside A co-crystallization product in accordance with the instantly described process and the resultant product with a 50% calorie reduction (Co-Crystal (50% Reduction)); and, a sugar/rebaudioside A co-crystallization product in accordance with the instantly described process and the resultant product with a 75% calorie reduction (Co-Crystal (75% Reduction).
Sample Preparation: On the day of the testing panel, a predetermined weight of sugar or sweetener was weighed out. […]
The beaker is gently swirled five (5) times, and the watch glass cover is removed. […] Sweetness was evaluated relative to standardized concentrations of sucrose in water. Samples were also evaluated for character nuances and quantifying attribute intensities such as residual mouth sensations and aftertastes, using a 12-point scale. […]

[2] = cited from earlier work; for times sweeter than sucrose: sweetness relative to sucrose/sugar

Row | SMILES | flavor/taste profile compared with pure sugar [1] | astringency, bitterness and aftertaste among diterpenoid glycoside sweeteners of Stevia extracts ([2]; in vivo) | times sweeter than sucrose [2]
1 | C=C1C[C@@]23CC[C@H]4[C@@](C)(CCC[C@@]4(C)C(=O)O[C@@H]4O[C@H](CO)[C@@H](O)[C@H](O)[C@H]4O)[C@@H]2CC[C@]1(O[C@@H]1O[C@H](CO)[C@@H](O)[C@H](O[C@@H]2O[C@H](CO)[C@@H](O)[C@H](O)[C@H]2O)[C@H]1O[C@@H]1O[C@H](CO)[C@@H](O)[C@H](O)[C@H]1O)C3 [rebaudioside A] | most extreme flavor profile across the array | the least astringent, the least bitter, and with the least persistent aftertaste | 200-300 times
2 | C=C1C[C@@]23CC[C@H]4[C@@](C)(CCC[C@@]4(C)C(=O)O[C@@H]4O[C@H](CO)[C@@H](O)[C@H](O)[C@H]4O)[C@@H]2CC[C@]1(O[C@@H]1O[C@H](CO)[C@@H](O)[C@H](O)[C@H]1O[C@@H]1O[C@H](CO)[C@@H](O)[C@H](O)[C@H]1O)C3 [stevioside] |  |  | about 200 times
